In assay [1] the target is T1, SdeA (Legionella pneumophila subsp. pneumophila, UniProt Q5ZTK4). The assay is described as follows: biochemical.
The target of assay [2] is T1, SdeA. Type of assay: biochemical.
Assay [3] deals with T1, SdeA. The assay is described as follows: biochemical. The source holds these as a separate data set.

The structures appear in SMILES notation. pIC50: −log10 of the molar value. “And” between values parts separate entries of the source, which are not always exact repeats. Identical values can stand only once. Counter-ions that a name gives are not always drawn. Like-named read-outs stand apart in the source and are kept apart here.

T1 sequence (Q5ZTK4 231-1190 limits assumed): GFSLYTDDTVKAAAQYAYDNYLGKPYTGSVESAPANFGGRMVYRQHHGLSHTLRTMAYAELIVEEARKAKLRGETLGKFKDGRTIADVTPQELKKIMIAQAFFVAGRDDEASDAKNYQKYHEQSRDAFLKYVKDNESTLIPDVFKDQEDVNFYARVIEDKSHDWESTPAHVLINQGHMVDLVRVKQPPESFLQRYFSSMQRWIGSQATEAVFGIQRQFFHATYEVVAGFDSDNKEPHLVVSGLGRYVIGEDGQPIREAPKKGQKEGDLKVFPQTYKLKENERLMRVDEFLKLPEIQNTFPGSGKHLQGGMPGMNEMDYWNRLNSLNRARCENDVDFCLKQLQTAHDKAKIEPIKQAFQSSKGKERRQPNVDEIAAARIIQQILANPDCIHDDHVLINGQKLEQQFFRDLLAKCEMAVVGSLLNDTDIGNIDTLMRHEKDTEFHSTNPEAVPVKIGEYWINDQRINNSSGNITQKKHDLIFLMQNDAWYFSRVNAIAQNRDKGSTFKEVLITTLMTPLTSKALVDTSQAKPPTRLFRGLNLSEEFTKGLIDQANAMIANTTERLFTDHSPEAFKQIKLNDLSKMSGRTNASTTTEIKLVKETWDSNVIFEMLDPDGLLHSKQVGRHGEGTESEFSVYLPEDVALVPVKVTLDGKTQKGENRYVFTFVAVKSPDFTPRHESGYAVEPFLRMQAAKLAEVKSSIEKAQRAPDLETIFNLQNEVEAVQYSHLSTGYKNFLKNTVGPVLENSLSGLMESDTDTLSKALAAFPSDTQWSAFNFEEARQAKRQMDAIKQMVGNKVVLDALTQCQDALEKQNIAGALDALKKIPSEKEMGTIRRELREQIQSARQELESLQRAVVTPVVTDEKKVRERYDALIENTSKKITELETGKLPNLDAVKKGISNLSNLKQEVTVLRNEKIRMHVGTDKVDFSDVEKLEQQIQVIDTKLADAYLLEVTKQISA

As usually defined, the pIC50 is the negative decadic logarithm of the IC50, by convention in mol/L. Turning to `O=[N+]([O-])[O-].O=[N+]([O-])[O-].[Pb+2]` [Pb(NO3)2], the negative-log IC50 (pIC50) at SdeA [1] (read-out: IC50) is 4.36. As for `NC(=O)c1cccc(N)c1` [3‐AB, 3‐aminobenzamide], at SdeA [2], the “behaviour as potential positive control” value is given as “auto‐fluorescent”. A word on the inhibition: it is the share of the control response that was lost under treatment. A higher inhibition goes with a strong effect. Consider `N#CC(C#N)=C(N)/C(C#N)=C/c1cc(O)c(O)c(O)c1` [Tyrphostin A51], for which, on SdeA [3], the inhibition at 5 µM came out at 98.2%. One may read the Inhibition as the drop in the measured response relative to a control, in per cent. High values mean strong suppression, low ones little suppression. Turning to `CC(=O)OCC1=C(C(=O)O)N2C(=O)[C@@H](NC(=O)CCC[C@@H](N)C(=O)O)[C@H]2SC1` [Cephalosporin C zinc salt, cephalosporin C Zn^2+ salt], on SdeA [3], the Inhibition turned out to be 75% and the inhibition at 5 µM stood at 74.6%. Also, the pIC50 against SdeA [1] (IC50) is 6.66 and 6.70. As for `[Cl][Mn][Cl]` [MnCl2], the “IC50 (μM)” value on SdeA [1] is “do not show any inhibitory effect and n.i”. `O=c1cc2c(=O)oc3cc(O)c(O)oc3c2c(O)c1O` [Galloflavin potassium salt]: testing at 5 µM at SdeA [3] gave an inhibition of 92.4%. Consider `CCCCCCCC(=O)ON1C(=O)CCC1=O` [N‐succinimidyl octanoate], for which, at SdeA [2], the “inhibition of SdeA” value is on record as “full inhibition”. As to `[Cl-].[Cl-].[Mg+2]` [MgCl2], the “IC50 (μM)” value against SdeA [1] is “do not show any inhibitory effect and n.i”. At SdeA [3], `O=c1cc(-c2ccccc2)oc2c(O)c(O)ccc12` [Dihydroxyflavone] had an inhibition at 5 µM of 96.5%. For `[Cl][Ni][Cl]` [NiCl2], the pIC50 at SdeA [1] (read-out: IC50) is 4.17. For the compound `O=c1c(O)c(-c2ccc(O)c(O)c2)oc2cc(O)cc(O)c12` [Quercetin dihydrate], testing at 5 µM against SdeA [3] gave an inhibition of 52.2%. `O=[N+]([O-])[O-].O=[N+]([O-])[O-].[Cd+2]` [Cd(NO3)2]: the negative-log IC50 (pIC50) on SdeA [1] (read-out: IC50) is 4.53.

For the compound `[Cl-].[Cl-].[Zn+2]` [ZnCl2], the “fold difference in IC50 between zinc and copper” value at SdeA [1] is 40 fold. Also, on SdeA [1] (read-out: IC50), the pIC50 was 6.34 and 6.52. For `O=C(O)C1=CC(=C(c2ccc(O)c(C(=O)O)c2)c2ccc(O)c(C(=O)O)c2)C=CC1=O` [Aurintricarboxylic acid], at SdeA [3], the inhibition at 5 µM turned out to be 96.3%. As to `[Cl][Cu][Cl]` [CuCl2], the pIC50 on SdeA [1] (read-out: IC50) was 4.91.

These data come from article PMC12596928 (Chembiochem, 2025).
